In brackets after ≈: the same amount, converted by molar mass. Like-named read-outs stand apart in the source and are kept apart here.
What was measured:
hypoxic cells [1] = conditions: Human; in vitro; drug concentration required under aerobic vs. hypoxic conditions for equivalent cell killing; cited from earlier work
hypoxic cells [2] = conditions: cited from earlier work
CHO-HA-1 = assay: In vitro cytotoxicity under aerobic or hypoxic conditions; format: cell-based, Hamster; conditions: CHO-HA-1 (normal); 1-hour incubation under hypoxic conditions
[3] = phosphate buffer at pH 7.4; cited from earlier work
mouse tumor models = assay: Tirapazamine with radiation in vivo
SCCVII = assay: In vitro cytotoxicity under aerobic or hypoxic conditions; format: cell-based; conditions: Mus musculus; SCCVII (tumor); 1-hour incubation under hypoxic conditions
mouse tumors = assay: Tirapazamine alone in vivo, tumor cell kill; parameters: species or system mice; conditions: given without radiation; typical
Description: (§1) . When given alone in vivo in mice, tirapazamine-in single doses-would be expected to produce a relatively small cell kill corresponding to the percentage of tumor cells which are hypoxic. A number of experiments have shown this to be the case, with cell kills typically less than one log (surviving fraction ≥ 1•10^-1). For example, the maximum cell kill observed following a single does was in the SCCVII tumor (surviving fraction = 5•10^-1), and only a small tumor growth delay of 3 days was produced in the FSaIIC fibrosarcoma.
[…]. However, the lowest surviving fraction seen in four different mouse tumors was 5•10^-1, and down to 5•10^-2 in a fifth mouse tumor (RIF-1 tumor).

RIF-1 = assay: In vitro cytotoxicity under aerobic or hypoxic conditions; format: cell-based; conditions: Mus musculus; RIF-1 (tumor); 1-hour incubation under hypoxic conditions
A549 = assay: as above; format: cell-based; conditions: Homo sapiens; A549 (tumor); 1-hour incubation under hypoxic conditions
HT 1080 = assay: as above; format: cell-based; conditions: Homo sapiens; HT 1080 (tumor); 1-hour incubation under hypoxic conditions
AG 1522 = assay: as above; format: cell-based; conditions: Homo sapiens; AG 1522 (normal); 1-hour incubation under hypoxic conditions
[4] = format: physicochemical
Description: […]. The planar nature of the molecule would facilitate an ordered stacking with the crystal with intermolecular attractions (charge transfer interactions) between each plane via the nitrogen and oxygen of the N-oxide functions. A hydrated form of tirapazamine can exist where water molecules are hydrogen bonded to the oxygen components.

HCT-8 = assay: In vitro cytotoxicity under aerobic or hypoxic conditions; format: cell-based; conditions: Homo sapiens; HCT-8 (tumor); 1-hour incubation under hypoxic conditions
[5] = system: FSaIIC Murine Fibrosarcoma; conditions: administered just before single-dose treatment with cyclophosphamide, carmustine or melphalan; cited from earlier work
[6] = Stress stability study, multiple autoclave cycles of 21 minutes at 121°C; format: physicochemical
Experimental: Stress studies were conducted using multiple autoclave cycles of 21 minutes at 121°C. […] A shift in the normal saline formulation pH occurred after eight autoclave cycles from 4.5 to 4.9, therefore formulations required some degree of buffering.

FSaIIC fibrosarcoma [7] = assay: Tirapazamine alone in vivo; parameters: species or system mice
Description: as §1, with “When” for “. When”

[8] = Solubility of tirapazamine in water and various vehicles; format: physicochemical
in vivo = conditions: mouse
rat = assay: Single and 2-week and 2-month multiple-dose studies; format: in vivo; conditions: each regimen (single, 2-week, 2-month multiple-dose)
Experimental: (§2) Single and 2-week and 2-month multiple-dose studies were performed in the rat and the dog.

dog = assay: as above; format: in vivo; conditions: each regimen (single, 2-week, 2-month multiple-dose)
Experimental: as §2

FSaIIC fibrosarcoma [9] = assay: Tirapazamine with chemotherapy in vivo; parameters: species or system mice; conditions: tirapazamine 50 mg/kg IP added to cyclophosphamide (150 mg/kg IP), melphalan (10 mg/kg IP), or cisplatin (10 mg/kg IP)
[10] = Degradation on refluxing in 0.1 N sodium hydroxide; format: physicochemical
mouse SCCVII tumors = assay: Tirapazamine with fractionated radiation in vivo; conditions: multiple 0.08 mmol/kg (43 mg/m^2) doses given prior to each radiation fraction (2.5 Gy x 8)
[11] = Stress stability on storage at 50°C and 70°C after a single autoclave cycle; format: physicochemical
Experimental: Formulations were also stressed by storing at elevated temperatures of 50°C and 70°C after a single autoclave cycle of 21 minutes at 121°C. […] This instability was not apparent from multiple autoclave stressing.
The clinical formulation used in chemical studies discussed later was as follows: […]

[12] = Rodent, in vitro, drug concentration required under aerobic vs. hypoxic conditions for equivalent cell killing

SMILES: COCC(O)Cn1ccnc1[N+](=O)[O-] (centres unmarked) [Misonidazole]
- Hypoxic Cytotoxicity Ratio (hypoxic cells [1]): 15
- Hypoxic Cytotoxicity Ratio (hypoxic cells [2]; [12]): 10-15

SMILES: CN(C)CCCNc1c2ccccc2nc2cccc([N+](=O)[O-])c12 [Nitracrine]
- Hypoxic Cytotoxicity Ratio (hypoxic cells [2]): 7

SMILES: CO[C@@]12[C@H](COC(N)=O)C3=C(C(=O)C(C)=C(N)C3=O)N1C[C@H]1[C@@H]2N1C (some centres unmarked) [Porfiromycin]
- Hypoxic Cytotoxicity Ratio (hypoxic cells [1]): ~10
- Hypoxic Cytotoxicity Ratio (hypoxic cells [2]; [12]): 5-10

SMILES: Nc1n[n+]([O-])c2ccccc2[n+]1[O-] [Tirapazamine, 1,2,4-benzotriazine-3-amine 1,4-dioxide]
- IC50 (CHO-HA-1): 5 µM
- Stability [3]: stable
- antitumor effect of tirapazamine plus radiation versus additive effect (mouse tumor models; one study): exceeds the additive effect of these two treatments
- enhancement of the antitumor activity of radiation, compared with etanidazole (mouse tumor models; one study): to a greater extent than did the hypoxic cell sensitizer etanidazole
- effectiveness with fractionated radiation (mouse tumor models; single 0.30 mmol/kg (160mg/m^2) dose versus multiple 0.08 mmol/kg (43 mg/m^2) doses, fractionated radiation (2.5 Gy x 8)): equally effective
- effectiveness with single-dose radiation (mouse tumor models; single 0.30 mmol/kg (160mg/m^2) dose with a single large (20 Gy) dose of radiation): effective
- antitumor activity of radiation (cell killing or tumor growth delay) (mouse tumor models; tumors FSaIIC, SCCVII, RIF-1, EMT6, and KHT, single- or multiple-dose schedule, single-dose or fractionated radiation): augments the antitumor activity of radiation
- IC50 (SCCVII): 4 µM
- cell kill (mouse tumors): less than 1 log
- IC50 (RIF-1): 3 µM
- IC50 (A549): 15 µM
- IC50 (HT 1080): 22 µM
- IC50 (AG 1522): 13 µM
- partition coefficient (octanol/water) [4]: 0.15
- IC50 (HCT-8): 10 µM
- dose enhancement of alkylating agents [5]: marked dose enhancement leading to synergistic cytotoxic effects on tumor cells
- Stability ([6]; acidic solutions of normal saline or solutions buffered to pH 4 using 0.05M citrate or 0.1 M lactate buffer): more stable
- Stability ([6]; citrate buffer at pH 6): unstable
- Stability ([6]; phosphate buffer at pH 5.9): unstable
- direct tumor cell killing (FSaIIC fibrosarcoma [7]; 25 to 75 mg/kg IP, mice bearing the FSaIIC fibrosarcoma): some direct tumor cell killing was observed
- tumor growth delay (FSaIIC fibrosarcoma [7]; alone, single dose, FSaIIC fibrosarcoma): 3 days
- solubility ([8]; 1% benzyl alcohol : 10% ethanol : 89% water, v/v, 15 °C, aqueous with cosolvent or surfactant or cyclodextrin, 1% Benzyl alcohol: 10% ethanol:89% water, v/v, 15°C): 1230 µg/mL (≈ 6.9 mM)
- solubility ([8]; Albumin 4.5% w/v, 20 °C, plasma or biological fluid): 1330 µg/mL (≈ 7.47 mM)
- solubility ([8]; Albumin 20% w/v, 20 °C, plasma or biological fluid): 1710 µg/mL (≈ 9.6 mM)
- solubility ([8]; Dimethylformamide 25% v/v in water, 15 °C, aqueous with cosolvent or surfactant or cyclodextrin): 1830 µg/mL (≈ 10.3 mM)
- solubility ([8]; Ethanol 10% v/v in water, 15 °C, aqueous with cosolvent or surfactant or cyclodextrin): 930 µg/mL (≈ 5.22 mM)
- solubility ([8]; Ethanol 50% v/v in water, 15 °C, aqueous with cosolvent or surfactant or cyclodextrin): 2320 µg/mL (≈ 13 mM)
- solubility ([8]; Ethanol 65% v/v in water, 15 °C, aqueous with cosolvent or surfactant or cyclodextrin): 2840 µg/mL (≈ 15.9 mM)
- solubility ([8]; Ethanol 85% v/v in water, 15 °C, aqueous with cosolvent or surfactant or cyclodextrin): 1710 µg/mL (≈ 9.6 mM)
- solubility ([8]; Ethanol, 15 °C, organic solvent or mixture): 470 µg/mL (≈ 2.64 mM)
- solubility ([8]; Glycerol 50% v/v in water, 15 °C, aqueous with cosolvent or surfactant or cyclodextrin): 2930 µg/mL (≈ 16.4 mM)
- solubility ([8]; Glycerol, 15 °C, organic solvent or mixture): 4590 µg/mL (≈ 25.8 mM)
- solubility ([8]; Normal Saline, 15 °C, saline or isotonic): 850 µg/mL (≈ 4.77 mM)
- solubility ([8]; PEG 400 50% v/v in water, 15 °C, aqueous with cosolvent or surfactant or cyclodextrin): 1600 µg/mL (≈ 8.98 mM)
- solubility ([8]; PEG 400, 15 °C, organic solvent or mixture): 5120 µg/mL (≈ 28.7 mM)
- solubility ([8]; Pluronic F68 20% w/v, 15 °C, aqueous with cosolvent or surfactant or cyclodextrin): 1080 µg/mL (≈ 6.06 mM)
- solubility ([8]; Povidone (Kollidon 12PF) 10% w/v, 15 °C, aqueous with cosolvent or surfactant or cyclodextrin): 950 µg/mL (≈ 5.33 mM)
- solubility ([8]; Propylene glycol 50% v/v in water, 15 °C, aqueous with cosolvent or surfactant or cyclodextrin): 2580 µg/mL (≈ 14.5 mM)
- solubility ([8]; Propylene glycol, 15 °C, organic solvent or mixture): 3270 µg/mL (≈ 18.4 mM)
- solubility ([8]; Tween 80 0.2% w/v, 15 °C, aqueous with cosolvent or surfactant or cyclodextrin): 900 µg/mL (≈ 5.05 mM)
- solubility ([8]; Tween 80 20% w/v, 15 °C, aqueous with cosolvent or surfactant or cyclodextrin): 1020 µg/mL (≈ 5.73 mM)
- solubility ([8]; Water for Injections, 15 °C, water): 850 µg/mL (≈ 4.77 mM)
- solubility ([8]; Water for Injections, 20 °C, water): 1430 µg/mL (≈ 8.03 mM)
- solubility ([8]; citrate buffer 0.05 M pH 4 (isotonic), 15 °C, pH 4, aqueous buffer): 810 µg/mL (≈ 4.55 mM)
- solubility ([8]; lactate buffer 0.1 M pH 4 (isotonic), 15 °C, pH 4, aqueous buffer, Lactate buffer O.1M pH 4 (isotonic)): 900 µg/mL (≈ 5.05 mM)
- solubility ([8]; water, in water (text, temperature not given)): ~810 µg/mL (≈ 4.55 mM)
- LD50 (in vivo): 101 mg/kg
- Clinical signs and symptoms (rat): salivation, decreases in white blood cell measurements (including lymphocyte count in the dog), and decreases in red blood cell measurements
- Clinical signs and symptoms (dog): salivation, decreases in white blood cell measurements (including lymphocyte count in the dog), and decreases in red blood cell measurements
- increases in tumor growth delay (FSaIIC fibrosarcoma [9]): 1.6- to 5.3 fold
- Degradation [10]: complete degradation occurs after refluxing for less than four hours
- cures (mouse SCCVII tumors): several cures
- Stability ([11]; 0.7 mg/ml in 0.005M citrate buffer pH 4.0, 2 months at 50°C): stable
- Stability ([11]; 0.7 mg/ml in 0.05M citrate buffer pH 4.0, 2 months at 50°C): stable
- Stability ([11]; 0.7 mg/ml in 0.05M citrate buffer pH 4.0, at 70°C): evidence of instability
- Stability ([11]; 0.05M citrate pH 4, compared with the other formulations stressed): most stable formulation
- Stability ([11]; lactate buffer, storage at 70°C after a single autoclave cycle): unstable

Source: EP0866709B1, “1,2,4-BENZOTRIAZINE OXIDES FORMULATIONS” (priority 1995, dated 1997)
